Reference: patent publication US20240376427A1, “COMPOSITIONS AND SYSTEMS COMPRISING THREE-DIMENSIONAL NERVE CELL CULTURES AND METHODS OF USING THE SAME” (THE ADMINISTRATORS OF THE TULANE EDUCATIONAL FUND, priority 2021, published 2024)

Tests used:
[1] = tested on: DRG spheroid monocultures; assay type: cell-based, rat
[2] = tested on: DRG(CHR2-GFP)-SCDH(CaMPARI-2) cocultures; experiment: Optogenetic DRG photostimulation-induced calcium influx in SCDH recorded by CaMPARI-2; assay type: cell-based, rat
Description: (§1) AAV1-hSyn-NES-his-CaMPARI2-WPRE-SV40 was a gift from Eric Schreiter (Addgene viral prep #101060-AAV1; http://n2t.net/addgene:101060; […]; http://n2t.net/addgene:58880; RRID:Addgene_5880). Viral particles of both types were added during spheroid formation with a MOI of 200,000. Cultures were seeded and matured for three weeks. Baseline red fluorescence was imaged with both three and ten second exposures prior to photostimulation using a Nikon AZ100 fluorescent microscope (2× magnification plus 5× or 8× digital zoom). […] Post-photostimulation red fluorescence was again imaged with methods identical to baseline imaging. The integrated pixel intensity for a region of interest encompassing each spheroid of interest was quantified in Fiji (ImageJ) and post-photostimulation intensity was normalized to pre stimulation intensity to obtain a final value for fold change in integrated pixel intensity.
(§2) The optogenetic experiments were conducted with between-samples designs. The fold change in red fluorescence before and after photostimulation was compared between control cultures and groups of cultures that received different independent treatments. […]

[3] = tested on: hPSC-derived nociceptor-dorsal spinal cord cocultures; experiment: Evoked response field potential recording in hPSC-derived nociceptor-dorsal spinal cord cocultures; assay type: cell-based, human
Description: Generation o±3D Spheroid Cultures. Cryogenically preserved human stem-cell derived spinal cord dorsal horn (SCDH) precursor cells were a kind gift from the Randolph Ashton. Cells were rapidly thawed and diluted 1:4 in Neurobasal Medium (Thermo-Fisher Scientific, Waltham, MA). Cells were centrifuged at 300 g for 4 minutes and the supernatant was removed. Cells were then resuspended in neuronal differentiation media comprised of Neurobasal Medium supplemented with 2% v/v B27 supplement (Thermo-Fisher), 1% v/v N2 supplement (Thermo-Fisher), 1% v/v GlutaMAX (Thermo-Fisher), 20 ng/mL human nerve growth factor, 10 ng/mL recombinant human/murine/rat brain derived neurotrophic factor, 10 ng/mL recombinant human glial cell derived neurotrophic factor, 10 ng/mL recombinant human NT-3 (all growth factors from PeproTech, Cranbury, NJ, USA), 1 uM dibutyrl-cAMP (Millipore-Sigma, St. Louis, MO, USA), 10 uM Y-27632 (Abcam, Waltham, MA, USA), 10 uM DAPT (Tocris, Minneapolis, MN, USA), and 1% v/v antibiotic/antimycotic solution (Thermo-Fisher). Cells were plated at 500,000 cells/cm^2 on culture well plates coated with Matrigel (Corning) diluted at 1:100 for six days in neuronal differentiation media changed every-other-day to force terminal neuron differentiation. Cryogenically preserved human stem cell-derived nociceptors were purchased from Anatomic, Inc (Minneapolis, MN, USA). Cells were rapidly thawed, diluted 1:4 in Neurobasal Medium, centrifuged at 300 g for 4 minutes, and the supernatant was removed. Nociceptors were then resuspended in human culture growth media (identical to neuronal differentiation media but lacking DAPT and Y-27632) plated at 80,000 cells/cm^2 in well plates coated with Matrigel diluted at 1:100, allowed to adhere overnight, and washed to remove any dead cell debris. Nociceptor and terminally differentiated SCDH cell cultures were lifted by incubation in Accutase at 37° C. for 15 minutes. The cell suspensions were collected, centrifuged at 300 g for 4 minutes, the supernatant was removed, and both cell types were resuspended in culture growth media. […]

DRG monocultures = experiment: CaMPARI-2 recorded calcium influx in DRG monocultures (capsaicin); assay type: cell-based, rat; settings: 10 μM capsaicin for five minutes prior to photostimulation, vs vehicle (0.1% DMSO)
Description: as §1, §2

[4] = tested on: hPSC-derived nociceptor-SCDH cocultures; assay type: cell-based, human

## N#Cc1cc2c(cc1[N+](=O)[O-])=NC(=O)C(=O)N=2.O.[Na].[Na] [CNQX, 6-Cyano-7-nitroquinoxaline-2,3-dione disodium salt hydrate]
[1]
  electrically-evoked compound action potentials (CAPs): insensitive
[2]
  calcium influx in SCDH following optical excitation of DRG tissue: significantly reduced calcium influx
[3]
  amplitude of the later negative and positive-going portions of the synaptic waveform: reduced
  synaptically evoked activity in dorsal spinal cord tissue following stimulation of afferent nociceptor spheroid: blocks a large portion

## O=C(O)CN(CCN(CC(=O)O)CC(=O)O)CC(=O)O [EDTA, ethylenediaminetetraacetic acid]
[1]
  electrically-evoked compound action potentials (CAPs): insensitive

## COc1cc(CNC(=O)CCCC/C=C/C(C)C)ccc1O [capsaicin]
DRG monocultures
  calcium influx recorded by CaMPARI-2 (fold change in red fluorescence): induced significant calcium influx

## CN1CC[C@]23c4c5ccc(O)c4O[C@H]2[C@@H](O)C=C[C@H]3[C@H]1C5.O=S(=O)(O)O [morphine, Morphine sulfate]
[3]
  late, positive-going portion of the synaptically evoked waveform: prolongs
[4]
  fully spontaneous burst firing in SCDH spheroid: increases in frequency and amplitude
  semi-spontaneous burst firing in SCDH spheroid: increased in frequency

## NC1=N[C@H](O)[C@H]2[C@H]3O[C@]4(O)O[C@@H]([C@@H](O)[C@@]2(N1)[C@@H]4O)[C@]3(O)CO [tetrodotoxin]
[1]
  electrically-evoked compound action potentials (CAPs): completely blocked
